Data set [1] in a line: Comparative uptake and incorporation of halogenated amino acids in mouse brain (40 min after i.v. injection). The class given is in vivo. As to conditions: mouse, in vivo, iv. On the procedure:
(§1) Typically, 0.75 to 1.5 MBq of L-2-[^18 F]-fluorotyrosine in 50 to 100 μl of isotonic solution were injected into the tail vein of NMRI mice.
(§2) After a defined incubation time, the animals were sacrificed and the brains were removed within 20 s and frozen in liquid nitrogen. Parts of the frontal cortex were removed (about 20 mg), weighed, homogenized in distilled water by ultrasonic treatment and, after 10 s, trichloroacetic acid (TCA) was added (final concentration >10%). The protein fraction precipitated by TCA was spun down and washed 2× with TCA solution, and the radioactivity in the combined supernatants and in the protein pellet was measured.
(§3) Results of comparative experiments on the incorporation of halogenated amino acids in mouse brain (40 min after i.v. injection) are compiled in the table which follows: […]

The test system of data set [2] is mouse brain. The data set is described as above. The class given is in vivo. On the procedure: as §1, §2, §3
Data set [3] concerns cerebral proteins (frontal cortex). The data set can be described thus: Fraction of radioactivity incorporated in cerebral proteins (TCA precipitation, frontal cortex) after tail vein injection. The class given is in vivo, NMRI mice. On the procedure:
as §1, §2

The next data set deals with brain tissue. The data set can be described thus: HPLC investigation of TCA supernatant for free 2-[^18 F]-fluorotyrosine in brain tissue. The class given is in vivo, NMRI mice. The note with it: for proportion of free (unmetabolized) 2-fluorotyrosine of the total tissue activity: brain tissue supernatant, HPLC; for recovery of the activity: free plus protein-incorporated. On the procedure: as §1, §2
The supernatant was investigated by HPLC (for conditions, see Example 1) for the proportion of free 2-[^18 F]-fluorotyrosine. It emerged from this that the activity not incorporated in proteins was present almost entirely as unmetabolized 2-fluorotyrosine.

Another data set has as its system tissue. The data set can be described thus: Distribution of radioactivity and metabolite analysis in tissue up to two hours after injection. It is filed as in vivo. The source says: (§4) Appropriate analysis in the striatum, the area of the brain which is highly permeated by dopaminergic nerve cells, has also ruled out the formation of catecholamines from 2-fluorotyrosine. Thus 2-[^18 F]-fluorotyrosine is an ideal tracer for the quantification of the rate of protein synthesis using a three-compartment model, which is relatively easy to handle mathematically and as is used for 2-[^18 F]-fluorodeoxyglucose in PET studies. The uptake of >1.6% of the injected dose per gram of tissue (see table below) is, moreover, adequate for PET investigations.

For a further data set, the system named is striatum. Description: Analysis for catecholamine formation in the striatum. The class given is in vivo.
Source text: as §4

Data set [4] deals with cerebral protein synthesis. The note with it: Coenen et al., cited from earlier work.
For data set [5], the system named is mouse brain. As to conditions: 40 min, footnote * Literature data; cited from earlier work.
Where [6] appears, read: mouse brain, 40 min after i.v. injection, read-out: Uptake.
The mark [7] stands for this setting: mouse brain, 40 min after i.v. injection.

Read-outs that look alike come from different tables or passages of the source.

Regarding `NC(Cc1ccccc1[18F])C(=O)O` (stereo not shown) [2 - ^18 FPhe], the tissue uptake at 40 min in data set [1] is 2 ± 0.4 %ID/g. Besides, in the data set on mouse brain [2] (mouse, in vivo, iv), the Incorporation is given as 11 ± 2 % of cerebral activity.

In the case of `N[C@@H](Cc1ccc(O)cc1[18F])C(=O)O` [2 - ^18 FTyr, 2-[^18 F]-fluorotyrosine], the tissue uptake at 40 min is 1.3 ± 0.005 %ID/g in data set [1] (setting [6]) and greater than 1.6 %ID/g in data set [1] (refers to table, read-out: uptake of the injected dose per gram of tissue). For the same compound, the “cerebral incorporation rate (in words)” value in the data set with mouse brain [2] (after 40 min) is “comparable to that for the natural amino acids methionine and phenylalanine”. The Incorporation in the data set on mouse brain [2] (setting [7]) is reported as 62 ± 3 % of cerebral activity. Also, the results for the “fraction incorporated in cerebral proteins” value in data set [3] (20 min after injection) and in data set [3] (60 min after injection) were 44±3% and 84%, respectively. In data set [3] (>1 h after the injection), the “incorporation in cerebral proteins (in words)” value was “almost quantitative”. Besides, the “proportion of free (unmetabolized) 2-fluorotyrosine of the total tissue activity” value is 51±3% in the data set with brain tissue (20 min) and 11±2% in the data set on brain tissue (60 min). Also, the “recovery of the activity” value in the data set with brain tissue (20 min) turned out to be 95±6%; in the data set with brain tissue (60 min) it was 95±4%. Further, the “chemical form of the activity in brain tissue” value in the data set with brain tissue (HPLC of supernatant) was “present in brain tissue virtually only in two chemical forms”. The “influence from redistributed labeled metabolites from the blood” value with tissue (in vivo) is recorded as “can be ruled out”. The “distribution of radioactivity in tissue” value in the data set on tissue (up to two hours after injection) was “distributed only over the free fluorinated amino acid and the portion incorporated in protein”. For the same compound, in the data set with striatum, the formation of catecholamines entry was “ruled out”.

`NC(Cc1ccccc1[75Br])C(=O)O` (stereo not shown) [2 - ^75 BrPhe]: in data set [1], the tissue uptake at 40 min was 2.4 ± 0.4 %ID/g. For the same compound, the Incorporation with mouse brain [2] (mouse, in vivo, iv) was 15 ± 1 % of cerebral activity.

On to `N[C@@H](Cc1ccc(O)c(F)c1)C(=O)O` [3 - ^18 FTyr, 3-fluorotyrosine], for which the tissue uptake at 40 min in data set [1] (setting [6]) amounted to 0.8 ± 0.005 %ID/g. Further, the Incorporation with mouse brain [2] (setting [7]) is 26 ± 1 % of cerebral activity.

`C[C@](N)(Cc1ccc(O)c([123I])c1)C(=O)O` [3 - ^123 I-α-MeTyr, 3-iodo-α-methyltyrosine] came in with a tissue uptake at 40 min in data set [1] of 0.8 ± 0.1 %ID/g. In addition, the Incorporation with mouse brain [2] (mouse, in vivo, iv) is reported as 18 ± 1 % of cerebral activity.

In the case of `NC(Cc1ccc(O)c([123I])c1)C(=O)O` (stereo not shown) [3 - ^123 ITyr], in data set [1], the tissue uptake at 40 min was 0.2 ± 0.005 %ID/g. Besides, the Incorporation in the data set on mouse brain [2] (mouse, in vivo, iv) was 13 ± 4 % of cerebral activity.

`NC(Cc1ccc([18F])cc1)C(=O)O` (stereo not shown) [4 - ^18 FPhe, p-[^18 F]-fluorophenylalanine]: the tissue uptake at 40 min in data set [1] came to 1.5 ± 0.3 %ID/g. Moreover, the Incorporation with mouse brain [2] (mouse, in vivo, iv) is 20 ± 2 % of cerebral activity. For the same compound, the “incorporation rate in cerebral protein (in words)” value in data set [4] was “relatively low”. The “radioactivity in cerebral tissue assigned to an unidentified metabolite pool” value in data set [4] (animal model) is given as “about 20%”.

On to `NC(Cc1ccc([75Br])cc1)C(=O)O` (stereo not shown) [4 - ^75 BrPhe], for which the tissue uptake at 40 min in data set [1] (setting [6]) came out at 2 ± 0.4 %ID/g. Besides, the Incorporation in the data set on mouse brain [2] (setting [7]) is reported as 17 ± 5 % of cerebral activity.

Take `CC(C)C[C@H](N)C(=O)O` [^14 C-Leu, leucine]: in the data set on mouse brain [5], the Incorporation is 85 ± 4 % of cerebral activity.

Take `CSCC[C@H](N)C(=O)O` [^14 C-Met, methionine]: the Incorporation in the data set on mouse brain [2] (mouse, in vivo, iv) was 57 ± 3 % of cerebral activity.

Take `N[C@@H](Cc1ccccc1)C(=O)O` [^14 C-Phe, phenylalanine]: the Incorporation in the data set on mouse brain [2] (setting [7]) is recorded as 63 ± 2 % of cerebral activity.

The values above are taken from patent publication US4925651A, “Radiofluoro-tyrosine derivatives, the preparation and use thereof” (priority 1988, dated 1990).
